# Measured values reported in patent US8247211B2, “Glycopeptide antibiotics” (American Cyanamid Company, priority 2001, dated 2012).
# Experiments:
# Experiment in all cases: In vitro antibacterial evaluation: minimum inhibitory concentration (MIC), broth dilution method
# Type in all cases: cell-based
# Enterococcus sp. = details: 18 hours at 35° C.
# Summary of the method: (§1)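 Test strains, among them recent clinical isolates carrying methicillin, penicillin and/or vancomycin resistance, were inoculated at 5×10^5 CFU/mL. A broth dilution series spanning 64-0.06 μg/mL in Muller-Hinton II […] (NCCLS M7-A2) defined the MIC as the lowest growth-inhibiting concentration.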
# Escherichia coli = details: 18 hours at 35° C.
# Summary of the method: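 Using Muller-Hinton II […] and an inoculum of 5×10^5 CFU/mL, antibiotic dilutions from 64 down to 0.06 μg/mL were tested following NCCLS M7-A2. The MIC is the lowest concentration inhibiting growth, including in methicillin-, penicillin- or vancomycin-resistant clinical isolates.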
# Staphylococcus sp. = details: for MIC Staphylococcus aureus (ATCC 29213): strain ATCC 29213; for MIC Staphylococcus aureus (GC 1131): strain GC 1131; for MIC Staphylococcus aureus (GC 3051): strain GC 3051; for MIC Staphylococcus aureus (GC 3053): strain GC 3053; for MIC Staphylococcus aureus (GC 4541): strain GC 4541; for MIC Staphylococcus aureus (GC 4542): strain GC 4542; for MIC Staphylococcus aureus-SMITH (GC 4543): strain GC 4543; for MIC Staphylococcus aureus (GC 4544): strain GC 4544; for MIC Staphylococcus aureus (GC 4545): strain GC 4545; for MIC Staphylococcus haemolyticus (GC 4546): strain GC 4546; for MIC Coagulase Negative Staphylococcus (GC 4547): strain GC 4547; for MIC Coagulase Negative Staphylococcus (GC 4548): strain GC 4548; for MIC Coagulase Negative Staphylococcus (GC 4549): strain GC 4549; for MIC Coagulase Negative Staphylococcus (GC 4551): strain GC 4551; for MIC Coagulase Negative Staphylococcus (GC 6257): strain GC 6257
# Summary of the method: as §1
# Streptococcus sp. = details: 18 hours at 35° C.
# Summary of the method: as §1
# [1] = Enterococcus faecalis (ATCC 29212)
# [2] = Enterococcus faecalis (GC 2242)
# [3] = Enterococcus faecalis (GC 2691)
# [4] = Enterococcus faecalis (GC 3059)
# [5] = Enterococcus faecalis (GC 4552)
# [6] = Enterococcus faecalis (GC 4553)
# [7] = Enterococcus faecalis (GC 4554)
# [8] = Enterococcus faecalis (GC 6189)
# [9] = broth dilution, inoculum 5×10^5 CFU/mL
# [10] = Streptococcus agalactiae (GC 4564)
# [11] = Streptococcus pneumoniae (ATCC 6301)
# [12] = Streptococcus pneumoniae (GC 1894)
# [13] = Streptococcus pneumoniae (GC 4565)
# [14] = Streptococcus pyogenes (GC 4563)
structure (smiles),measurement,setting,value
CC(c1ccccc1)C1NC(=O)CNC(=O)C(CO)NC(=O)C(C(O)C2CNC(=N)N2C2OC(CO)C(O)C(O)C2O)NC(=O)C(C(O)C2CNC(=N)N2)NC(=O)C(Cc2ccc(OC3OC(CO)C(OC4OC5COC(c6ccc(C(=O)c7ccc(I)cc7)cc6)OC5C(O)C4O)C(O)C3O)cc2)NC1=O (centres unmarked) [Example 186],MIC Enterococcus avium (GC 4558),Enterococcus sp.; Enterococcus avium (GC 4558),2 µg/mL
same,MIC Enterococcus faecalis (ATCC 29212),Enterococcus sp.; [1],2 µg/mL
same,MIC Enterococcus faecalis (GC 2242),Enterococcus sp.; [2],2 µg/mL
same,MIC Enterococcus faecalis (GC 2691),Enterococcus sp.; [3],2 µg/mL
same,MIC Enterococcus faecalis (GC 3059),Enterococcus sp.; [4],2 µg/mL
same,MIC Enterococcus faecalis (GC 4552),Enterococcus sp.; [5],2 µg/mL
same,MIC Enterococcus faecalis (GC 4553),Enterococcus sp.; [6],2 µg/mL
same,MIC Enterococcus faecalis (GC 4554),Enterococcus sp.; [7],2 µg/mL
same,MIC Enterococcus faecalis (GC 6189),Enterococcus sp.; [8],1 µg/mL
same,MIC Enterococcus faecium (GC 2243),Enterococcus sp.; Enterococcus faecium (GC 2243),2 µg/mL
same,MIC Enterococcus faecium (GC 4556),Enterococcus sp.; Enterococcus faecium (GC 4556),2 µg/mL
same,MIC Enterococcus faecium (GC 4557),Enterococcus sp.; Enterococcus faecium (GC 4557),2 µg/mL
same,MIC Enterococcus avium (GC 4558),Enterococcus sp.; [9],2 µg/mL
same,MIC Enterococcus faecalis (ATCC 29212),Enterococcus sp.; [9],2 µg/mL
same,MIC Enterococcus faecalis (GC 2242),Enterococcus sp.; [9],2 µg/mL
same,MIC Enterococcus faecalis (GC 2691),Enterococcus sp.; [9],2 µg/mL
same,MIC Enterococcus faecalis (GC 3059),Enterococcus sp.; [9],2 µg/mL
same,MIC Enterococcus faecalis (GC 4552),Enterococcus sp.; [9],2 µg/mL
same,MIC Enterococcus faecalis (GC 4553),Enterococcus sp.; [9],2 µg/mL
same,MIC Enterococcus faecalis (GC 4554),Enterococcus sp.; [9],2 µg/mL
same,MIC Enterococcus faecalis (GC 6189),Enterococcus sp.; [9],1 µg/mL
same,MIC Enterococcus faecium (GC 2243),Enterococcus sp.; [9],2 µg/mL
same,MIC Enterococcus faecium (GC 4556),Enterococcus sp.; [9],2 µg/mL
same,MIC Enterococcus faecium (GC 4557),Enterococcus sp.; [9],2 µg/mL
same,MIC Escherichia coli (ATCC 25922),Escherichia coli,64 µg/mL
same,MIC Escherichia coli (GC 4559),Escherichia coli,64 µg/mL
same,MIC Escherichia coli (GC 4560),Escherichia coli,4 µg/mL
same,MIC Staphylococcus aureus (ATCC 29213),Staphylococcus sp.,2 µg/mL
same,MIC Staphylococcus aureus (GC 1131),Staphylococcus sp.,2 µg/mL
same,MIC Staphylococcus aureus (GC 3051),Staphylococcus sp.,2 µg/mL
same,MIC Staphylococcus aureus (GC 3053),Staphylococcus sp.,2 µg/mL
same,MIC Staphylococcus aureus (GC 4541),Staphylococcus sp.,2 µg/mL
same,MIC Staphylococcus aureus (GC 4542),Staphylococcus sp.,1 µg/mL
same,MIC Staphylococcus aureus-SMITH (GC 4543),Staphylococcus sp.,2 µg/mL
same,MIC Staphylococcus aureus (GC 4544),Staphylococcus sp.,2 µg/mL
same,MIC Staphylococcus aureus (GC 4545),Staphylococcus sp.,2 µg/mL
same,MIC Staphylococcus haemolyticus (GC 4546),Staphylococcus sp.,1 µg/mL
same,MIC Coagulase Negative Staphylococcus (GC 4547),Staphylococcus sp.,2 µg/mL
same,MIC Coagulase Negative Staphylococcus (GC 4548),Staphylococcus sp.,1 µg/mL
same,MIC Coagulase Negative Staphylococcus (GC 4549),Staphylococcus sp.,1 µg/mL
same,MIC Coagulase Negative Staphylococcus (GC 4551),Staphylococcus sp.,2 µg/mL
same,MIC Coagulase Negative Staphylococcus (GC 6257),Staphylococcus sp.,0.5 µg/mL
same,MIC Streptococcus agalactiae (GC 4564),Streptococcus sp.; [10],<0.06 µg/mL
same,MIC Streptococcus pneumoniae (ATCC 6301),Streptococcus sp.; [11],<0.06 µg/mL
same,MIC Streptococcus pneumoniae (GC 1894),Streptococcus sp.; [12],<0.06 µg/mL
same,MIC Streptococcus pneumoniae (GC 4565),Streptococcus sp.; [13],<0.06 µg/mL
same,MIC Streptococcus pyogenes (GC 4563),Streptococcus sp.; [14],0.25 µg/mL
same,MIC Streptococcus agalactiae (GC 4564),Streptococcus sp.; [9],<0.06 µg/mL
same,MIC Streptococcus pneumoniae (ATCC 6301),Streptococcus sp.; [9],<0.06 µg/mL
same,MIC Streptococcus pneumoniae (GC 1894),Streptococcus sp.; [9],<0.06 µg/mL
same,MIC Streptococcus pneumoniae (GC 4565),Streptococcus sp.; [9],<0.06 µg/mL
same,MIC Streptococcus pyogenes (GC 4563),Streptococcus sp.; [9],0.25 µg/mL
COc1ccc2cc(C3OCC4OC(OC5C(CO)OC(Oc6ccc(CC7NC(=O)C(C(C)c8ccccc8)NC(=O)CNC(=O)C(CO)NC(=O)C(CC8CNC(=N)N8C8OC(CO)C(O)C(O)C8O)NC(=O)C(CC8CNC(=N)N8)NC7=O)cc6)C(O)C5O)C(O)C(O)C4O3)ccc2c1 (centres unmarked) [Example 190],MIC Enterococcus avium (GC 4558),Enterococcus sp.; Enterococcus avium (GC 4558),16 µg/mL
same,MIC Enterococcus faecalis (ATCC 29212),Enterococcus sp.; [1],32 µg/mL
same,MIC Enterococcus faecalis (GC 2242),Enterococcus sp.; [2],32 µg/mL
same,MIC Enterococcus faecalis (GC 2691),Enterococcus sp.; [3],32 µg/mL
same,MIC Enterococcus faecalis (GC 3059),Enterococcus sp.; [4],32 µg/mL
same,MIC Enterococcus faecalis (GC 4552),Enterococcus sp.; [5],32 µg/mL
same,MIC Enterococcus faecalis (GC 4553),Enterococcus sp.; [6],32 µg/mL
same,MIC Enterococcus faecalis (GC 4554),Enterococcus sp.; [7],32 µg/mL
same,MIC Enterococcus faecalis (GC 6189),Enterococcus sp.; [8],32 µg/mL
same,MIC Enterococcus faecium (GC 2243),Enterococcus sp.; Enterococcus faecium (GC 2243),32 µg/mL
same,MIC Enterococcus faecium (GC 4556),Enterococcus sp.; Enterococcus faecium (GC 4556),32 µg/mL
same,MIC Enterococcus faecium (GC 4557),Enterococcus sp.; Enterococcus faecium (GC 4557),8 µg/mL
same,MIC Enterococcus avium (GC 4558),Enterococcus sp.; [9],16 µg/mL
same,MIC Enterococcus faecalis (ATCC 29212),Enterococcus sp.; [9],32 µg/mL
same,MIC Enterococcus faecalis (GC 2242),Enterococcus sp.; [9],32 µg/mL
same,MIC Enterococcus faecalis (GC 2691),Enterococcus sp.; [9],32 µg/mL
same,MIC Enterococcus faecalis (GC 3059),Enterococcus sp.; [9],32 µg/mL
same,MIC Enterococcus faecalis (GC 4552),Enterococcus sp.; [9],32 µg/mL
same,MIC Enterococcus faecalis (GC 4553),Enterococcus sp.; [9],32 µg/mL
same,MIC Enterococcus faecalis (GC 4554),Enterococcus sp.; [9],32 µg/mL
same,MIC Enterococcus faecalis (GC 6189),Enterococcus sp.; [9],32 µg/mL
same,MIC Enterococcus faecium (GC 2243),Enterococcus sp.; [9],32 µg/mL
same,MIC Enterococcus faecium (GC 4556),Enterococcus sp.; [9],32 µg/mL
same,MIC Enterococcus faecium (GC 4557),Enterococcus sp.; [9],8 µg/mL
same,MIC Escherichia coli (ATCC 25922),Escherichia coli,>64 µg/mL
same,MIC Escherichia coli (GC 4559),Escherichia coli,>64 µg/mL
same,MIC Escherichia coli (GC 4560),Escherichia coli,16 µg/mL
same,MIC Staphylococcus aureus (ATCC 29213),Staphylococcus sp.,16 µg/mL
same,MIC Staphylococcus aureus (GC 1131),Staphylococcus sp.,16 µg/mL
same,MIC Staphylococcus aureus (GC 3051),Staphylococcus sp.,16 µg/mL
same,MIC Staphylococcus aureus (GC 3053),Staphylococcus sp.,16 µg/mL
same,MIC Staphylococcus aureus (GC 4541),Staphylococcus sp.,8 µg/mL
same,MIC Staphylococcus aureus (GC 4542),Staphylococcus sp.,4 µg/mL
same,MIC Staphylococcus aureus-SMITH (GC 4543),Staphylococcus sp.,4 µg/mL
same,MIC Staphylococcus aureus (GC 4544),Staphylococcus sp.,16 µg/mL
same,MIC Staphylococcus aureus (GC 4545),Staphylococcus sp.,16 µg/mL
same,MIC Staphylococcus haemolyticus (GC 4546),Staphylococcus sp.,8 µg/mL
same,MIC Coagulase Negative Staphylococcus (GC 4547),Staphylococcus sp.,8 µg/mL
same,MIC Coagulase Negative Staphylococcus (GC 4548),Staphylococcus sp.,8 µg/mL
same,MIC Coagulase Negative Staphylococcus (GC 4549),Staphylococcus sp.,8 µg/mL
same,MIC Coagulase Negative Staphylococcus (GC 4551),Staphylococcus sp.,16 µg/mL
same,MIC Coagulase Negative Staphylococcus (GC 6257),Staphylococcus sp.,8 µg/mL
same,MIC Streptococcus agalactiae (GC 4564),Streptococcus sp.; [10],16 µg/mL
same,MIC Streptococcus pneumoniae (ATCC 6301),Streptococcus sp.; [11],8 µg/mL
same,MIC Streptococcus pneumoniae (GC 1894),Streptococcus sp.; [12],4 µg/mL
same,MIC Streptococcus pneumoniae (GC 4565),Streptococcus sp.; [13],8 µg/mL
same,MIC Streptococcus pyogenes (GC 4563),Streptococcus sp.; [14],16 µg/mL
same,MIC Streptococcus agalactiae (GC 4564),Streptococcus sp.; [9],16 µg/mL
same,MIC Streptococcus pneumoniae (ATCC 6301),Streptococcus sp.; [9],8 µg/mL
same,MIC Streptococcus pneumoniae (GC 1894),Streptococcus sp.; [9],4 µg/mL
same,MIC Streptococcus pneumoniae (GC 4565),Streptococcus sp.; [9],8 µg/mL
same,MIC Streptococcus pyogenes (GC 4563),Streptococcus sp.; [9],16 µg/mL
